Among the data in PubChem BioAssay AID1845228 are Papp values, retold here.

Each structure is given as a SMILES string. “And” between values parts separate entries of the source, which are not always exact repeats. Equal values may be shown once. Numbered stars: 1 amine (or outer) side, 2 acyl side, 3 side chain; on linkers, the order of the positions; unused ones are H or OH. Bridge positions count the residues as written; N and C are the ends. Square brackets hold non-standard residues; d marks the D form. Peptide text beside a SMILES is read from it. I, II: the chains in the order shown. Actinocin(9to1) = Cc1c2oc3c(C)ccc(C(=O)[*:1])c3nc-2c(C(=O)[*:2])c(N)c1=O; NMeV = CN[C@H](C(=O)O)C(C)C; Sar = CNCC(=O)O

For the series the following is noted: pampa; 60.0 min; 50.0 µM.
A word on the Papp: it is the rate of passage across a membrane or cell layer, normalised by area and donor concentration. A low value points to slow passage. For `COc1ccccc1NC(=O)C1=C(C)Nc2c(C(=O)Nc3ccc(F)cc3)cnn2C1c1ccc(Cl)cc1` (centres undefined), the Papp is below 1 ×10⁻⁶ cm/s. Under `O=C(Nc1ncc([N+](=O)[O-])s1)c1ccccc1O` stands 8 ×10⁻⁶ cm/s; under `Cc1c2oc3c(C)ccc(C(=O)N[C@@H]4C(=O)N[C@H](C(C)C)C(=O)N5CCC[C@H]5C(=O)N(C)CC(=O)N(C)[C@@H](C(C)C)C(=O)O[C@@H]4C)c3nc-2c(C(=O)N[C@@H]2C(=O)N[C@H](C(C)C)C(=O)N3CCC[C@H]3C(=O)N(C)CC(=O)N(C)[C@@H](C(C)C)C(=O)O[C@@H]2C)c(N)c1=O` (I: T[dV]P[Sar][NMeV] / II: T[dV]P[Sar][NMeV]; ester I:1-I:C, II:1-II:C; linker I:N-II:N via Actinocin(9to1)), 6 ×10⁻⁶ cm/s and 13 ×10⁻⁶ cm/s; under `CC(=O)OCC1=C(C(=O)O)N2C(=O)C(NC(=O)CCCC(N)C(=O)O)C2SC1` (centres undefined), 2 ×10⁻⁶ cm/s. For `O=C(O)C1=C(CSc2nnnn2CS(=O)(=O)O)CS[C@@H]2[C@H](NC(=O)[C@H](O)c3ccccc3)C(=O)N12`, the Papp was 12 ×10⁻⁶ cm/s. For `Cc1cc(-c2nc(C(=O)Nc3cn(C4CCOCC4)nc3C(N)=O)co2)ccn1` the value was 43 ×10⁻⁶ cm/s; for `CC1(C)SCCN(S(=O)(=O)c2ccc(Oc3ccncc3)cc2)[C@H]1C(=O)NO`, 9 ×10⁻⁶ cm/s. Turning to `NCc1ccccc1CC(=O)N[C@@H]1C(=O)N2C(C(=O)O)=C(CSc3nnnn3CC(=O)O)CS[C@H]12`, the Papp is below 1 ×10⁻⁶ cm/s.

In the case of `CCC(=O)C1=C(c2ccc(F)cc2)N(C(=O)CC)n2cnnc2S1`, the Papp is 189 ×10⁻⁶ cm/s. Under `COc1cccc2c1C(=O)c1c(O)c3c(c(O)c1C2=O)C[C@@](O)(C(C)=O)C[C@@H]3O[C@H]1C[C@H](N)[C@H](O)[C@H](C)O1` stands 8 ×10⁻⁶ cm/s; under `COc1ccc(Cn2c(-c3ccccc3)c(-c3ccccc3)c3c(=N)n(CC(OC)OC)cnc32)cc1`, 272 ×10⁻⁶ cm/s.

In turn, `O=C(NC1CCC(O)CC1)c1ccc(-c2ncc3cnc(-c4ccccc4)cn23)cc1` (centres undefined) displayed a Papp of 35 ×10⁻⁶ cm/s.

With `Cc1onc(-c2c(F)cccc2Cl)c1C(=O)N[C@@H]1C(=O)N2[C@@H]1SC(C)(C)[C@@H]2C(=O)O`, the Papp is 28 ×10⁻⁶ cm/s.

`CO[C@H]1/C=C\C=C(\C)C(=O)NC2=CC(=O)C(NCCN(C)C)=C(C[C@@H](C)C[C@H](OC)[C@H](O)[C@@H](C)/C=C(/C)[C@@H]1OC(N)=O)C2=O` came in with a Papp of 11.9 ×10⁻⁶ cm/s. `CC(NC(CCc1ccccc1)C(=O)O)C(=O)N1C(=O)N(C)CC1C(=O)O` (centres undefined) registered a Papp below 1 ×10⁻⁶ cm/s.

`O=C(Nc1cnc(Cl)nc1)c1ccc(F)c(F)c1` registered a Papp of 61 ×10⁻⁶ cm/s. In the case of `CN(C)CC1CCOC1(c1ccccc1)c1ccccc1` (centres undefined), the Papp stood at 47 ×10⁻⁶ cm/s. `CON=C(C(=O)N[C@@H]1C(=O)N2C(C(=O)O)=C(Cn3ccc(=N)n3CCO)CS[C@H]12)c1csc(N)n1` registered a Papp below 1 ×10⁻⁶ cm/s.

The molecule `Nc1ncnc2c1ncn2[C@H]1O[C@@H](CSCC[C@@H](N)C(=O)O)[C@H](O)[C@@H]1O` showed a Papp below 1 ×10⁻⁶ cm/s.

As for `CC=CC1=C(C(=O)O)N2C(=O)[C@@H](NC(=O)[C@H](N)c3ccc(O)cc3)[C@H]2SC1`, the Papp came to 282 ×10⁻⁶ cm/s. For `Nc1nc(N)c2c(OCC3CCN(Cc4ccccc4F)CC3)cccc2n1` the value was 12 ×10⁻⁶ cm/s.

As for `CN(C)C(=O)NC1CCC(CCN2CCN(c3cccc(Cl)c3Cl)CC2)CC1` (centres undefined), the Papp is 100 ×10⁻⁶ cm/s. Compared with the last molecule, the Papp is about 8.3-fold higher. Turning to `Cc1cc2c(C(N)=O)cccc2n1-c1nc2c(c(NCc3ccccc3)n1)COCC2`, the Papp was 90 ×10⁻⁶ cm/s. The Papp values of the last two molecules are within 1.5-fold of each other. `N=c1c2c(-c3ccccc3)c(-c3ccccc3)n(Cc3ccccc3)c2ncn1[C@H](CO)Cc1ccccc1` had a Papp below 1 ×10⁻⁶ cm/s. `Cc1ccc(NC(=O)c2ccc(CN3CCNCC3)cc2)cc1Nc1nccc(-c2cccnc2)n1`: the Papp came to 19 ×10⁻⁶ cm/s. Under `N=c1c2c(-c3ccccc3)c(-c3ccccc3)n(Cc3ccccc3)c2ncn1CCO` stands 223 ×10⁻⁶ cm/s. For the molecule `NC(=O)[C@@H]1C[C@]2(NC(=O)NC2=O)c2cc(F)ccc2O1`, the Papp was below 1 ×10⁻⁶ cm/s.

Molecule `CC(=O)OC[C@@H]1O[C@@H](n2ccc(=O)[nH]c2=O)[C@H](OC(C)=O)[C@H]1OC(C)=O` returned a Papp below 1 ×10⁻⁶ cm/s. Under `CC(Cc1ccc2c(c1)OCO2)NCC(O)c1ccc(O)c(O)c1` (centres undefined) stands 6 ×10⁻⁶ cm/s. Under `N=c1c2c(-c3ccccc3)c(-c3ccccc3)n(Cc3ccccc3)c2ncn1CCNc1ccncc1` stands 90 ×10⁻⁶ cm/s; under `CC1(C)S[C@@H]2[C@H](NC(=O)C3(N)CCCCC3)C(=O)N2[C@H]1C(=O)O`, 54 ×10⁻⁶ cm/s.

`N[C@@H](C(=O)N[C@@H]1C(=O)N2C(C(=O)O)=C(Cl)CC[C@H]12)c1ccccc1` gave a Papp below 1 ×10⁻⁶ cm/s. Under `CCC[C@@H](NC(=O)N1C(=O)C(CC)(CC)[C@@H]1Oc1ccc(C(=O)N2CCN(C)CC2)cc1)c1ccc2c(c1)OCO2` stands above 300 ×10⁻⁶ cm/s; under `NC(=O)c1cccc(-c2cc(O)cc(OC(=O)NC3CCCCC3)c2)c1`, 6 ×10⁻⁶ cm/s; under `Cn1c2cc(C=O)sc2c2cnn(Cc3ccccc3F)c(=O)c21`, 270 ×10⁻⁶ cm/s.

In turn, `O=C(O)C1CN(Cc2ccc(-c3nc4cc(Cc5ccccc5F)ccc4s3)c(F)c2)C1` displayed a Papp above 300 ×10⁻⁶ cm/s. Regarding `CCCCC/C=C/C(=O)CCc1ccc(O)c(OC)c1`, the Papp came to 187 ×10⁻⁶ cm/s. Under `N=c1c2c(-c3ccccc3)cn(Cc3ccccc3)c2ncn1C(CO)(CO)CO` stands above 300 ×10⁻⁶ cm/s. Under `COCC1=C(C(=O)O)N2C(=O)[C@@H](NC(=O)/C(=N\OC)c3csc(N)n3)[C@H]2SC1` stands below 1 ×10⁻⁶ cm/s. Under `CCOc1cc2ncc(C#N)c(Nc3ccc(F)c(Cl)c3)c2cc1NC(=O)C=CCN(C)C` stands 256 ×10⁻⁶ cm/s; under `N=c1c2c(-c3ccccc3)cn(Cc3ccccc3)c2ncn1CCNCCO`, 3 ×10⁻⁶ cm/s; under `COc1ccc(Cn2c(-c3ccccc3)c(-c3ccccc3)c3c(=N)n(CCCCCO)cnc32)cc1`, 206 ×10⁻⁶ cm/s. `Nc1ncnc2c1ncn2[C@@H]1O[C@H](CSCC[C@H](N)C(=O)O)[C@@H](O)[C@H]1O` returned a Papp below 1 ×10⁻⁶ cm/s.

As to `CCOc1ccc(C2C(C(=O)Nc3ccccc3OC)=C(C)Nc3c(C(=O)Nc4cccc(C)c4)cnn32)cc1` (centres undefined), the Papp is 45 ×10⁻⁶ cm/s. Under `Cc1nc2c([nH]1)CCN(C(=O)c1ccc(NC(=O)c3ccccc3-c3ccccc3)cc1)c1ccccc1-2` stands 98 ×10⁻⁶ cm/s; under `O=C1/C(=C\c2ccccc2)C[C@@]2(O)[C@H]3Cc4ccc(O)c5c4[C@@]2(CCN3CC2CC2)[C@@H]1O5`, 158 ×10⁻⁶ cm/s; under `Cn1nnnc1Sc1ncnc2scc(-c3ccc4c(c3)OCO4)c12`, 240 ×10⁻⁶ cm/s. `CCN(CC)CCCN(c1ccccc1)C1Cc2ccccc2C1`: the Papp amounted to 125 ×10⁻⁶ cm/s. This Papp lies about 1.9-fold lower than the previous one. Under `CC(C)N(CCCNC(=O)Nc1ccc(C(C)(C)C)cc1)C[C@H]1O[C@@H](n2cc(Br)c3c(N)ncnc32)[C@H](O)[C@@H]1O` stands 6.2 ×10⁻⁶ cm/s; under `N=c1c2c(-c3ccccc3)c(-c3ccccc3)n(CCc3ccccc3)c2ncn1CCCO`, 66 ×10⁻⁶ cm/s. For `CN1CCN(CCCN2c3ccccc3Sc3ccc(C(F)(F)F)cc32)CC1` the value was 53 ×10⁻⁶ cm/s. For `CO/N=C(\C(=O)N[C@@H]1C(=O)N2C(C(=O)O)=C(C[N+]3(C)CCCC3)CS[C@H]12)c1csc(N)n1` the value was below 1 ×10⁻⁶ cm/s; for `CC(C)C[C@H]1C(=O)O[C@H](Cc2ccc(N3CCOCC3)cc2)C(=O)N(C)[C@@H](CC(C)C)C(=O)O[C@H](C)C(=O)N(C)[C@@H](CC(C)C)C(=O)O[C@H](Cc2ccc(N3CCOCC3)cc2)C(=O)N(C)[C@@H](CC(C)C)C(=O)O[C@H](C)C(=O)N1C`, below 1 ×10⁻⁶ cm/s; for `CN(C(=O)/C=C/c1ccoc1)[C@@H]1CC[C@@]2(O)[C@H]3Cc4ccc(O)c5c4[C@@]2(CCN3CC2CC2)[C@H]1O5`, 13 ×10⁻⁶ cm/s.
